Converted amounts (≈) assume the structure as drawn. Where two headings read alike, the source gives them in different places.
Columns and labels:
OXA-48:P68A [1] = target: T1, OXA-48:P68A (Klebsiella pneumoniae, UniProt Q6XEC0, P68A); assay: Steady-state enzyme kinetics, OXA-48:P68A; assay type: biochemical; conditions: for kcat / Km: substrate hydrolysis, 25°C, pH 7.0, error = 95% CI
OXA-48:P68A [2] = target: T1, OXA-48:P68A; assay: IC50 with nitrocefin as reporter substrate, OXA-48:P68A; assay type: biochemical; conditions: P68A compared to native OXA-48
[3] = tested on: MP105 (E. coli TOP10 expressing OXA-48:P68A); assay: microbe, parasite or virus in culture; assay type: cell-based; conditions: for MIC: Escherichia coli, Table 3, MP105, OXA-48:P68A in pCR-blunt II TOPO
[4] = tested on: MP103 (MP101 subjected to CAZ-AVI); assay: MIC determination, MP103 (MP101 selected on CAZ-AVI); assay type: cell-based, Escherichia coli
Description: (§1) Ten milliliters of an MP101 culture was grown in MH broth at 37°C overnight and then centrifuged for 10 min at 4,000 × g, and the pellet was suspended in 1 ml MH broth. One hundred microliters was plated on MH agar containing increasing concentrations of either CAZ alone or in combination with AVI up to 2 mg/liter. For CAZ-AVI, we utilized the clinical ratio of 4:1, respectively. Colonies growing on the highest concentration were recovered and grown in a fresh overnight culture (MH broth) and subsequently plated on concentrations of CAZ or CAZ-AVI up to 32 mg/liter.
(§2) For MIC determination, single colonies were suspended in 0.9% saline buffer to a 0.5 McFarland standard and further diluted 1:100 in MH broth. Fifty microliters of the bacterial suspension was loaded onto in-house-designed and premade Sensititre microtiter plates (TREK Diagnostic Systems/Thermo Fisher Scientific, East Grinstead, United Kingdom). The plates were incubated for 20 h at 37°C. Antibiotic susceptibility testing was performed in duplicates.

[5] = tested on: MP107 (MP100 transformed with p50579417_3_OXA-48-CAZ); assay: MIC determination, MP107 (MG1655 with CAZ-adapted plasmid); assay type: cell-based; conditions: Escherichia coli; Table 6; MP107, adapted plasmid p50579417-OXA-48-CAZ
Description: as §2

E. coli MG1655 (MP100) = assay: microbe, parasite or virus in culture; assay type: cell-based, Escherichia coli
Description: as §2

[6] = tested on: MP108 (MP100 transformed with p50579417_3_OXA-48-CAZ-AVI); assay: MIC determination, MP108 (MG1655 with CAZ-AVI-adapted plasmid); assay type: cell-based; conditions: Escherichia coli; Table 6; MP108, adapted plasmid p50579417-OXA-48-CAZ-AVI
Description: as §2

[7] = tested on: MP101 (MP100 transformed with p50579417_3_OXA-48); assay: MIC determination, MP101 (MG1655 with native OXA-48 plasmid); assay type: cell-based, Escherichia coli
Text: Mueller-Hinton (MH) agar and broth were purchased from Thermo Fisher Scientific (East Grinstead, United Kingdom). Luria-Bertani (LB) broth, LB agar, ampicillin, amoxicillin, cefepime, CAZ, imipenem, meropenem, piperacillin, and tazobactam were obtained from Sigma-Aldrich (St. Louis, MO). Nitrocefin was purchased from Merck (Darmstadt, Germany). The characteristics of the clinical E. coli strain 50579417 harboring the OXA-48 plasmid (p50579417_3_OXA-48) have been described previously ([61], [62]). The plasmid p50579417_3_OXA-48 was conjugated into rifampin-resistant E. coli TOP10 and subsequently isolated using a plasmid mini-purification kit (Qiagen, Germany). E. coli MG1655 (DA4201) was electroporated with p50579417_3_OXA-48 as published previously ([63]). Transformants positive for blaOXA-48 were checked by PCR using REDTaq ready mix (Sigma-Aldrich, St. Louis, MO) and preOXA-48 primers ([61]).
as §2

[8] = tested on: MP102 (MP101 subjected to CAZ); assay: MIC determination, MP102 (MP101 selected on CAZ); assay type: cell-based, Escherichia coli
Description: as §1, §2

[9] = tested on: MP104 (E. coli TOP10 expressing native OXA-48); assay: MIC determination, TOP10 expressing native OXA-48 (MP104); assay type: cell-based; conditions: Escherichia coli; Table 3; MP104, native OXA-48 in pCR-blunt II TOPO
Description: as §2
For a functional resistance profile, the native and mutated blaOXA-48 genes were cloned in the pCR-blunt II-TOPO vector (Invitrogen, CA) and expressed in E. coli TOP10 (Invitrogen, CA). The PCR product was obtained by Phusion High Fidelity PCR mastermix with High Fidelity buffer (New England Biolabs, MA) and preOXA-48 primers ([61]). Transformants were selected on LB agar plates containing 50 or 100 mg/liter ampicillin. Insertion size was verified by Sanger sequencing using M13 forward (5′-[…]-3′) and reverse (5′-[…]-3′) primers.

E. coli TOP10 = assay: microbe, parasite or virus in culture; assay type: cell-based; conditions: Escherichia coli, Table 3, read-out: MIC
Description: as §2

[10] = Escherichia coli, MG1655, Table 6, MP100, read-out: MIC
[11] = Escherichia coli, Table 6, MP101, native plasmid, read-out: MIC

T1 sequence (Q6XEC0 23-265 P68A): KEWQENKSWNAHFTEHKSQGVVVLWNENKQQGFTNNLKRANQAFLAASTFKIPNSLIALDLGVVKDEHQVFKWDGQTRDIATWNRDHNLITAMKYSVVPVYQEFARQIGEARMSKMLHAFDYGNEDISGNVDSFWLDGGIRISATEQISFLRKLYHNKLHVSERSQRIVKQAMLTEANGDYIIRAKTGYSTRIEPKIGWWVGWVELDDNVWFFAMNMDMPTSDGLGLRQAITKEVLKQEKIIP

Row | SMILES | kcat (OXA-48:P68A [1]) | MIC [3] | MIC [5] | MIC [6] | MIC [9] | MIC (E. coli TOP10) | MIC (E. coli MG1655 (MP100); [10]) | MIC [7, 11] | further results
1 | CC1(C)S[C@@H]2[C@H](NC(=O)[C@H](N)c3ccccc3)C(=O)N2[C@H]1C(=O)O [AMP, ampicillin] | 25 ± 1 s⁻¹ |  |  |  |  |  |  |  | Km (OXA-48:P68A [1]; read-out: Km): 77 ± 12 µM
2 | NC(=O)[C@@H]1CC[C@@H]2CN1C(=O)N2OS(=O)(=O)O [Avibactam, avibactam] |  |  |  |  |  |  |  |  | change in the inhibitory activity (OXA-48:P68A [2]): no change
3 | CC(C)(O/N=C(\C(=O)N[C@@H]1C(=O)N2C(C(=O)[O-])=C(C[n+]3ccccc3)CS[C@H]12)c1csc(N)n1)C(=O)O [CAZ, ceftazidime] | 26 ± 3 s⁻¹ | 16 µg/mL (≈ 29.3 µM) | 16 µg/mL (≈ 29.3 µM) | 32 µg/mL (≈ 58.5 µM) | 0.5 µg/mL (≈ 0.915 µM) | 1 µg/mL (≈ 1.83 µM) |  |  | increased catalytic efficiency (kcat/Km) (OXA-48:P68A [1]; P68A compared to native OXA-48): > 10 fold; Km (OXA-48:P68A [1]): 220 ± 50 µM; MIC increase by P68A substitution ([3]; MP105 versus native OXA-48 (MP104)): 32 fold; MIC ([4]; Escherichia coli, Table 2, strain MP103, after two-step CAZ-AVI selection): 32 µg/mL; MIC increase after CAZ-AVI selection ([4]; MP103 versus MP101): 128 fold; MIC (E. coli MG1655 (MP100); Escherichia coli, MG1655, Table 2, strain MP100, duplicates, read-out: MIC): 0.25 µg/mL (≈ 0.457 µM); MIC (E. coli MG1655 (MP100); Table 6, MP100): 0.25 µg/mL (≈ 0.457 µM); MIC ([7]; Escherichia coli, Table 2, strain MP101, duplicates, read-out: MIC): 0.25 µg/mL (≈ 0.457 µM); MIC ([7]; Table 6, MP101, native plasmid): 0.25 µg/mL (≈ 0.457 µM); MIC ([8]; Escherichia coli, Table 2, strain MP102, after two-step CAZ selection): 32 µg/mL; MIC increase after CAZ selection ([8]; MP102 versus MP101): 128 fold
4 | CO/N=C(\C(=O)N[C@@H]1C(=O)N2C(C(=O)O)=C(COC(N)=O)CS[C@H]12)c1ccco1 [CXM, cefuroxime] |  | 16 µg/mL (≈ 37.7 µM) | 16 µg/mL (≈ 37.7 µM) | 8 µg/mL (≈ 18.9 µM) | 16 µg/mL (≈ 37.7 µM) | 16 µg/mL (≈ 37.7 µM) | 8 µg/mL (≈ 18.9 µM) | 16 µg/mL (≈ 37.7 µM) | 
5 | C[C@@H](O)[C@H]1C(=O)N2C(C(=O)O)=C(S[C@@H]3CN[C@H](CNS(N)(=O)=O)C3)[C@H](C)[C@H]12 [DOR, doripenem] |  | 0.03 µg/mL (≈ 0.0713 µM) | 0.03 µg/mL (≈ 0.0713 µM) | 0.03 µg/mL (≈ 0.0713 µM) | 0.03 µg/mL (≈ 0.0713 µM) | 0.03 µg/mL (≈ 0.0713 µM) | 0.015 µg/mL (≈ 0.0357 µM) | 0.03 µg/mL (≈ 0.0713 µM) | 
6 | C[C@@H](O)[C@H]1C(=O)N2C(C(=O)O)=C(S[C@@H]3CN[C@H](C(=O)Nc4cccc(C(=O)O)c4)C3)[C@H](C)[C@H]12 [ETP, ertapenem] |  | 0.06 µg/mL (≈ 0.126 µM) | 0.25 µg/mL (≈ 0.526 µM) | 0.12 µg/mL (≈ 0.252 µM) | 1 µg/mL (≈ 2.1 µM) | 0.015 µg/mL (≈ 0.0315 µM) | 0.015 µg/mL (≈ 0.0315 µM) | 1 µg/mL (≈ 2.1 µM) | 
7 | CO/N=C(\C(=O)N[C@@H]1C(=O)N2C(C(=O)[O-])=C(C[N+]3(C)CCCC3)CS[C@H]12)c1csc(N)n1 [FEP, cefepime] | 0.5 ± 0.1 s⁻¹ | 0.25 µg/mL (≈ 0.52 µM) | 0.5 µg/mL (≈ 1.04 µM) | 0.25 µg/mL (≈ 0.52 µM) | 0.12 µg/mL (≈ 0.25 µM) | 0.06 µg/mL (≈ 0.125 µM) | 0.06 µg/mL (≈ 0.125 µM) | 0.25 µg/mL (≈ 0.52 µM) | Km (OXA-48:P68A [1]): 462 ± 126 µM
